Experimental data as given in patent US6472526B1, “Imidazole derivatives having an inhibitory activity for farnesyl transferase and process for preparation thereof” (LG Chemical Ltd., priority 1997, dated 2002).

Key:
Ras farnesyl transferase [1] = target: T1, Ras farnesyl transferase (Rattus norvegicus, UniProt Q02293+Q04631); assay: In vivo (cellular) inhibitory activity for Ras farnesyl transferase, Rat2 cell line transformed with fused protein of H-Ras substituted with polybasic lysine domain at C-terminus of K-Ras; type: cell-based; details: Rat2 cell line transformed with H-Ras fused with polybasic lysine domain of K-Ras C-terminus; concentration inhibiting 50% of farnesyl bonding; read-out: K-Ras CIC50
T1 construct: endogenous in cells; host or cells: Rat2 fibroblasts transformed with H-Ras or with an H-Ras/K-Ras C-terminus fusion
In short: (§1)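 Transformed Rat2 fibroblasts (H-Ras or H-Ras/K-Ras polybasic-tail fusion) treated with compound in 1% DMSO; after 4 h labelled with [35S]methionine 150 μCi/ml for 20 h. Lysates immunoprecipitated with anti-Ras Y13-259, resolved by 13.5% SDS-PAGE and autoradiography; CIC50 = concentration inhibiting 50% of Ras farnesylation from band intensities.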

Ras farnesyl transferase [2] = target: T1, Ras farnesyl transferase; assay: In vivo (cellular) inhibitory activity for Ras farnesyl transferase, Rat2 cell line which expresses C-Harvey-Ras protein; type: cell-based; details: Rat2 cell line expressing C-Harvey-Ras; concentration inhibiting 50% of farnesyl bonding of Ras protein; read-out: H-Ras CIC50
In short: as §1

Ras farnesyl transferase [3] = target: T2, Ras farnesyl transferase (Homo sapiens, UniProt P49354+P49356); assay: In vitro inhibitory activity for Ras farnesyl transferase, K-Ras substrate; type: biochemical; details: in vitro farnesyl transferase assay, K-Ras; read-out: K-Ras IC50
T2 construct: made in house

Ras farnesyl transferase [4] = target: T2, Ras farnesyl transferase; assay: In vitro inhibitory activity for Ras farnesyl transferase, H-Ras substrate; type: biochemical; details: recombinant farnesyl transferase 4.5 nM, Ras substrate protein 1.5 μM, tritium-farnesylpyrophosphate 0.15 μM, 30 minutes at 37° C.; read-out: H-Ras IC50

Structure (SMILES)	IC50 (Ras farnesyl transferase [1])	IC50 (Ras farnesyl transferase [2])	IC50 (Ras farnesyl transferase [3])	IC50 (Ras farnesyl transferase [4])
O=C(c1ccccc1Br)c1cn(Cc2c[nH]cn2)cc1-c1cccc2ccccc12 [Compound 47]	10 to 100 µM	1 to 50 µM	0.1 to 10 µM	0.09 µM
CN(CCO)C(=O)c1cn(Cc2c[nH]cn2)cc1-c1cccc2ccccc12 [Compound 94]	10 to 100 µM	1 to 50 µM	0.1 to 10 µM	0.2 µM
CN1CCN(C(=O)c2cn(Cc3cncn3CCc3ccccc3Cl)cc2-c2cccc3ccccc23)CC1 [Compound 24, 1-[1-(2-Chloro)phenethyl-1H-imidazol-5-yl]methyl-3-[4-methylpiperazin-1-yl]carbonyl-4-(naphthalen-1-yl)-1H-pyrrole]	10 to 50 µM	0.025 µM	0.003 µM	0.002 µM
N#Cc1ccc(Cn2cncc2Cn2cc(C(=O)c3ccsc3)c(-c3cccc4ccccc34)c2)cc1 [Compound 74]	10 to 100 µM	0.1 to 1 µM	0.01 to 0.1 µM	0.01 µM
CSCc1ccc(C(=O)c2cn(Cc3c[nH]cn3)cc2-c2cccc3ccccc23)cc1 [Compound 61]	10 to 100 µM	1 to 50 µM	0.1 to 10 µM	0.74 µM
O=C(c1cn(Cc2c[nH]cn2)cc1-c1cccc2ccccc12)N1CCC(O)CC1 [Compound 91]	10 to 100 µM	1 to 50 µM	0.1 to 10 µM	2.15 µM
O=C(c1cn(Cc2c[nH]cn2)cc1-c1cccc2ccccc12)N1CCSC1 [Compound 90]	10 to 100 µM	1 to 50 µM	0.1 to 10 µM	0.0425 µM
O=C(NCCO)c1cn(Cc2c[nH]cn2)cc1-c1cccc2ccccc12 [Compound 93]	10 to 100 µM	1 to 50 µM	0.1 to 10 µM	0.32 µM

Further lines, results first:

IC50 (Ras farnesyl transferase [1])	IC50 (Ras farnesyl transferase [2])	IC50 (Ras farnesyl transferase [3])	IC50 (Ras farnesyl transferase [4])	Structure (SMILES)
10 to 50 µM	0.025 µM	0.002 µM	0.001 µM	O=C(c1cn(Cc2cncn2Cc2cccc3ccccc23)cc1-c1cccc2ccccc12)N1CCOCC1 [Compound 6]
10 to 50 µM	0.02 µM	0.002 µM	0.001 µM	CN1CCN(C(=O)c2cn(Cc3cncn3CCc3ccccc3F)cc2-c2cccc3ccccc23)CC1 [Compound 22, 1-[1-(2-Fluoro)phenethyl-1H-imidazol-5-yl]methyl-3-[4-methylpiperazin-1-yl]carbonyl-4-(naphthalen-1-yl)-1H-pyrrole]
10 to 50 µM	0.02 µM	0.003 µM	0.002 µM	CN1CCN(C(=O)c2cn(Cc3cncn3CCc3ccc(Br)cc3)cc2-c2cccc3ccccc23)CC1 [Compound 34, 1-[1-(4-Bromo)phenethyl-1H-imidazol-5-yl]methyl-3-[4-methylpiperazin-1-yl]carbonyl-4-(naphthalen-1-yl)-1H-pyrrole]
4 µM	0.03 µM	0.002 µM	0.002 µM	COCCN(C)C(=O)c1cn(Cc2cncn2Cc2ccc(Br)cc2)cc1-c1cccc2ccccc12 [Compound 111, 1-[1-(4-Bromobenzyl)-1H-imidazol-5-yl]methyl-3-[N-(2-methoxyethyl)-N-methyl]carbamoyl-4-(naphthalen-1-yl)-1H-pyrrole]
5 µM	0.015 µM	0.005 µM	0.002 µM	COCCN(C)C(=O)c1cn(Cc2cncn2Cc2ccc(F)cc2)cc1-c1cccc2ccccc12 [Compound 127, 1-[1-(4-fluorobenzyl)-1H-imidazol-5-yl]methyl-3[N-(2-methoxyethyl)-N-methyl]carbamoyl-4-(naphthalen-1-yl)-1H-pyrrole]
10 to 20 µM	0.012 µM	0.005 µM	0.002 µM	COCCN(C)C(=O)c1cn(Cc2cncn2CCc2cccc3ccccc23)cc1-c1cccc2ccccc12 [Compound 31, 3-[N-(2-Methoxyethyl)-N-methyl]carbamoyl-4-(naphthalen-yl)-1-{1-[2-(naphthalen-1-yl)ethyl]-1H-imidazol-5-yl}methyl-1H-pyrrole]
